# Test results: US9089572B2, “Inhibitors of p97” (California Institute of Technology, priority 2008, dated 2015)
# Where a SMILES comes first, the peptide text is derived from it. The star is where a group is joined. Cbz = O=C(OCc1ccccc1)*
# Legend:
# Molt4 = assay: MTT cell growth assay, Molt4; format: cell-based; conditions: Homo sapiens, MOLT-4, 48 or 72 h, read-out: Cell line inhibition of growth GI50 Molt4
# Experimental: (§1) To probe further the effect of compound 2 and related compounds 1, 3, 5, 6 and 7, various concentrations of these compounds were added to 13 different cell lines and incubated for 48 or 72 h. An MTT assay was then performed to evaluate cell growth and survival.
# HTC116 WT = assay: MTT cell growth assay, HTC116 WT; format: cell-based; conditions: 48 or 72 h, read-out: Cell line inhibition of growth GI50 HTC116 WT
# Experimental: as §1
# wild type murine p97 = wild type murine p97 (Mus musculus, UniProt Q01853); assay: In vitro ATP hydrolysis (malachite green ATPase assay), wild type murine p97; format: biochemical; conditions: 200 nM p97, 20 min preincubation at 23° C., malachite green; read-out: In vitro ATP Hydrolysis Activity IC50 WT-mP97
# Experimental: (§2) Compounds were tested for their ability to inhibit the ATPase activity of purified wild type murine p97 and T532C-Cdc48, a mutant of yeast Cdc48 in which the residue analogous to cysteine 522, threonine 532, was converted to cysteine.
# LNCaP = assay: MTT cell growth assay, LNCaP; format: cell-based; conditions: Homo sapiens, 48 or 72 h, read-out: Cell line inhibition of growth GI50 LNCaP
# Experimental: as §1
# RL = assay: MTT cell growth assay, RL; format: cell-based; conditions: Homo sapiens, 48 or 72 h, read-out: Cell line inhibition of growth GI50 RL
# Experimental: as §1
# PC3 = assay: MTT cell growth assay, PC3; format: cell-based; conditions: Homo sapiens, PC-3, 48 or 72 h, read-out: Cell line inhibition of growth GI50 PC3
# Experimental: as §1
# MCF7 = assay: MTT cell growth assay, MCF7; format: cell-based; conditions: Homo sapiens, 48 or 72 h, read-out: Cell line inhibition of growth GI50 MCF7
# Experimental: as §1
# T532C-Cdc48 = T532C-Cdc48 (Saccharomyces cerevisiae, UniProt P25694, T532C); assay: In vitro ATP hydrolysis (malachite green ATPase assay), T532C-Cdc48; format: biochemical, yeast
# Experimental: as §2
# To determine whether cysteine 522 is necessary for inhibition of p97 by compound 2, a mutant of p97 was constructed in which cysteine 522 was converted to either alanine (C522A-mp97) or threonine (C522T-mp97). The IC50 values of compound 2 were measured the against various enzymes during a 20-minute preincubation (see Table 2). Mutation of cysteine 522 in p97 to either alanine or threonine decreased sensitivity to compound 2 by greater than 100-fold. On the other hand, yeast Cdc48, which normally is quite resistant to compound 2, became nearly 30-fold more sensitive to the compound upon introduction of a cysteine in place of threonine 532.
# HeLa = assay: MTT cell growth assay, HeLa; format: cell-based; conditions: Homo sapiens, 48 or 72 h, read-out: Cell line inhibition of growth GI50 HeLa
# Experimental: as §1
# HCT116 p53−/− = assay: MTT cell growth assay, HCT116 p53−/−; format: cell-based; conditions: Homo sapiens, HCT-116, 48 or 72 h, read-out: Cell line inhibition of growth GI50 HCT116 p53−/−
# Experimental: as §1
# DU145 = assay: MTT cell growth assay, DU145; format: cell-based; conditions: Homo sapiens, DU-145, 48 or 72 h, read-out: Cell line inhibition of growth GI50 DU145
# Experimental: as §1
# RPMI8226 = assay: MTT cell growth assay, RPMI8226; format: cell-based; conditions: Homo sapiens, RPMI-8226, 48 or 72 h, read-out: Cell line inhibition of growth GI50 RPMI8226
# Experimental: as §1
# CCRF-CEM = assay: MTT cell growth assay, CCRF-CEM; format: cell-based; conditions: Homo sapiens, 48 or 72 h, read-out: Cell line inhibition of growth GI50 CCRF-CEM
# Experimental: as §1
# MDAMB-231 = assay: MTT cell growth assay, MDAMB-231; format: cell-based; conditions: Homo sapiens, MDA-MB-231, 48 or 72 h, read-out: Cell line inhibition of growth GI50 MDAMB-231
# Experimental: as §1
# [1] = tested on: HeLa cell line that stably expresses UbG76V-GFP; assay: Accumulation of UbG76V-GFP in HeLa cells (fluorescence microscopy); format: cell-based; conditions: fluorescence microscopy
# Experimental: As a control, the same cells were treated with the proteasome inhibitor MG132. In the latter set of experiments, a HeLa cell line that stably expresses UbG76V-GFP was transfected with either wild type (WT), D1 mutant (E305Q), D2 mutant (E578Q) or E305Q, E578Q double mutant (QQ) murine 97-pcDNA4.1 plasmid (0.05 μg/100 μL) in a 96-well plate. After 23 h, the intensity of UbG76V-GFP signal was measured on a Molecular Devices ImageXpress automated fluorescence microscope. […] The direct accumulation of Ub-G76V-GFP caused by compound 2 at 25 μM is 4-fold less than that caused by MG132 at 2 μM. This is likely due to the fact that only fully folded Ub-G76V-GFP should require p97 for degradation by the proteasome.
# As a second test of whether compound 8 can inhibit p97 in vivo, it was evaluated whether it can cause accumulation of the UbG76V-GFP reporter. A HeLa cell line that stably expresses UbG76V-GFP was treated with compound 8 for 1 h at 37° C., and was then evaluated by fluorescence microscopy. As a control, the same cells were treated with the proteasome inhibitor MG132. […] The level of GFP fluorescence was quantified in cells treated with compound 8 at different doses and for different periods of time (FIG. 28).
# Ub-G76V-GFP/HeLa cells = assay: Degradation of pre-accumulated Ub-G76V-GFP (cycloheximide chase after MG132 washout); format: cell-based; conditions: for % K: relative to 0 μM
# Experimental: To evaluate this possibility, an assay was developed to determine the rate of degradation of pre-accumulated Ub-G76V-GFP molecules. […] Cells were then washed with PBS three times remove the MG132. Cells were then refreshed by adding DMEM containing cycloheximide (50 μg/mL; to block production of more Ub-G76V-GFP) and test compounds (0˜10 μM) were added into cells. Eight 96-well plates were prepared and one of the plates was imaged at 25, 50, 70, 100, 110, 125, 145, or 170 min after washing with PBS three times. After washing out MG132, degradation of pre-accumulated Ub-G76V-GFP appears to follow pseudo-first order reaction. Rate constant (K; 1/min) can be determined from the slope of plotting Ln (Fold Accumulation) versus Time (min) (see FIG. 17 and FIG. 18).
# Ub-G76V-GFP/HeLa cells were treated with MG132 (2 μM) for 1 h and washed with PBS three times. DMEM containing cycloheximide (50 μg/mL) and compound 8 (0-10 μM) was added into cells. Eight 96-well plates were prepared and one of the plates was imaged at 25, 50, 70, 100, 110, 125, 145, or 170 min after washing with PBS three times.
# wild type murine p97, sequence (Q01853 whole entry): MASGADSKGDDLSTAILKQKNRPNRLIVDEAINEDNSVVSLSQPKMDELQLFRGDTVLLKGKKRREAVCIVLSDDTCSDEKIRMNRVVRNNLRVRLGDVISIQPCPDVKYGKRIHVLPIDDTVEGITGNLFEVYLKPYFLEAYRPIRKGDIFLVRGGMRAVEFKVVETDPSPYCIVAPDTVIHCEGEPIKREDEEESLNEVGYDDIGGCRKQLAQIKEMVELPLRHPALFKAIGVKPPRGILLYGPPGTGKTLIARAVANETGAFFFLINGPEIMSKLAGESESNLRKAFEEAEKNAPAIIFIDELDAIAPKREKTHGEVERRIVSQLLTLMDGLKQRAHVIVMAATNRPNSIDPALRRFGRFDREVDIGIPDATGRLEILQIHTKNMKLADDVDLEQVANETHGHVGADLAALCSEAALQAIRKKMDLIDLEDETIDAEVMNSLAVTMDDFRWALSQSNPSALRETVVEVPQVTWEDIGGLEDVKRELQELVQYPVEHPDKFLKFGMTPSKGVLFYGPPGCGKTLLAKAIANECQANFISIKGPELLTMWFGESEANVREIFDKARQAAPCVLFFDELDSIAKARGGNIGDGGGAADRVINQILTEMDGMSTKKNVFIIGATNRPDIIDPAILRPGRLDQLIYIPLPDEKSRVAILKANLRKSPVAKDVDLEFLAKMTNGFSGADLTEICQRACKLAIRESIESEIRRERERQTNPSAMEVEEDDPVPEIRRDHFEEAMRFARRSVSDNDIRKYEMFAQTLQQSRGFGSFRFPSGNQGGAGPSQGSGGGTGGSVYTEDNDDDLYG
# T532C-Cdc48, sequence (P25694 whole entry T532C): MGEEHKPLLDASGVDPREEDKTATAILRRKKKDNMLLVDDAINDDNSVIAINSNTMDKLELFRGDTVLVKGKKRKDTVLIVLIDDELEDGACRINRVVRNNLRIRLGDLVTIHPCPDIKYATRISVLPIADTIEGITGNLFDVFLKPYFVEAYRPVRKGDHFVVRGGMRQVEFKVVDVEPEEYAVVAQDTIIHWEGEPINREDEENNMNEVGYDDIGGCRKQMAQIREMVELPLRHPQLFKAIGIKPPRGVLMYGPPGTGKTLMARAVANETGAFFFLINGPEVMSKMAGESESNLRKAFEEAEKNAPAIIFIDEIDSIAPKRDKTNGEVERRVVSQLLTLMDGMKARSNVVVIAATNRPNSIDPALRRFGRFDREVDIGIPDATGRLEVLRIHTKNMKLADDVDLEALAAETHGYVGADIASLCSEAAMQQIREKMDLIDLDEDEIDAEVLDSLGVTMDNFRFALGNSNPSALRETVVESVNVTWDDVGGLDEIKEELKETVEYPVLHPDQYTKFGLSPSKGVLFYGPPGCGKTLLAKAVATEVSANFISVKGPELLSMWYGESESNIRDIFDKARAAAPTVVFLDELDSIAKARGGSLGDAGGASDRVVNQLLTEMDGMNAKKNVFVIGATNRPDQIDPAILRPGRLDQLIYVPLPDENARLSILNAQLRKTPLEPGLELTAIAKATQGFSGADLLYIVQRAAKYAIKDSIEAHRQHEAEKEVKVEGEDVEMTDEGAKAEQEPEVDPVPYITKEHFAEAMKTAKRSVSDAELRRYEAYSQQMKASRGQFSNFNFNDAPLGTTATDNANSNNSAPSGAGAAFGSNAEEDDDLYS
Compound,GI50 (Molt4),GI50 (HTC116 WT),IC50 (wild type murine p97),GI50 (LNCaP),GI50 (RL),GI50 (PC3),GI50 (MCF7),IC50 (T532C-Cdc48),GI50 (HeLa),GI50 (HCT116 p53−/−),GI50 (DU145),GI50 (RPMI8226),GI50 (CCRF-CEM),GI50 (MDAMB-231),also measured
C=CC(=O)N(C(=O)C=C)c1ncnc2c1c(-c1ccccc1)nn2C(C)(C)C [Compound 3],2700 ± 800 nM,5.1 ± 2 µM,1.1 ± 0.7 µM,4.6 ± 1.1 µM,5 ± 2 µM,3.3 ± 0.9 µM,6.6 ± 2.2 µM,26 ± 6 µM,5.3 ± 2.5 µM,4 ± 0.9 µM,8.2 ± 2.4 µM,1200 ± 600 nM,7.2 ± 4.3 µM,24 ± 10 µM,–
"CC(C)C[C@@H](C=O)NC(=O)[C@H](CC(C)C)NC(=O)[C@H](CC(C)C)NC(=O)OCc1ccccc1 [MG132, reference compound] (Cbz-Leu-Leu-Leu-aldehyde)",–,–,–,–,–,–,–,–,–,–,–,–,–,–,"accumulation of UbG76V-GFP ([1]; 1 h at 37° C.): caused detectable accumulation of UbG76V-GFP; accumulation of UbG76V-GFP ([1]; 4 hours at 37° C.): caused accumulation of UbG76V-GFP; K, rate constant of Ub-G76V-GFP degradation (Ub-G76V-GFP/HeLa cells; 0.01 μM): 0.0336 min⁻¹; % K (Ub-G76V-GFP/HeLa cells; 0.01 μM): 88%; K, rate constant of Ub-G76V-GFP degradation (Ub-G76V-GFP/HeLa cells; 0.04 μM): 0.0322 min⁻¹; % K (Ub-G76V-GFP/HeLa cells; 0.04 μM): 84%; K, rate constant of Ub-G76V-GFP degradation (Ub-G76V-GFP/HeLa cells; 0.16 μM): 0.0260 min⁻¹; % K (Ub-G76V-GFP/HeLa cells; 0.16 μM): 68%; K, rate constant of Ub-G76V-GFP degradation (Ub-G76V-GFP/HeLa cells; 0.63 μM): 0.0095 min⁻¹; % K (Ub-G76V-GFP/HeLa cells; 0.63 μM): 25%; K, rate constant of Ub-G76V-GFP degradation (Ub-G76V-GFP/HeLa cells; 2.5 μM): 0.0005 min⁻¹; % K (Ub-G76V-GFP/HeLa cells; 2.5 μM): 1%; K, rate constant of Ub-G76V-GFP degradation (Ub-G76V-GFP/HeLa cells; 10 μM): 0.0009 min⁻¹; % K (Ub-G76V-GFP/HeLa cells; 10 μM): 2%; IC50 (Ub-G76V-GFP/HeLa cells; Homo sapiens, HeLa, 1 h, read-out: IC50 on the decay of Ub-G76V-GFP): 240 ± 40 nM"
CC(C)(C)n1nc(-c2ccccc2)c2c(NC(=O)CCl)ncnc21 [Compound 4],–,19 ± 6 µM,4.5 ± 3.5 µM,23 ± 4 µM,–,6.3 ± 0.6 µM,–,35 ± 8 µM,–,20 ± 5 µM,40 ± 10 µM,–,–,–,–
C=CC(=O)Nc1ncnc2c1c(-c1ccc3ccccc3c1)nn2C(C)(C)C [Compound 6],700 ± 100 nM,2.8 ± 1.6 µM,3 ± 1 µM,2.5 ± 0.7 µM,1.3 ± 0.4 µM,0.3 ± 0.23 µM,1.9 ± 0.4 µM,24 ± 7 µM,1.2 ± 0.2 µM,2.4 ± 1 µM,2.3 ± 0.7 µM,1200 ± 300 nM,1.3 ± 0.4 µM,5.9 ± 2.6 µM,–
